Test results from publication PMC5390315 (Scientific Reports, 2017).
Read-outs that look alike come from different tables or passages of the source.

Experiments:
[1] = tested on: bovine brain tubulin; assay: Inhibition of tubulin polymerization; type: biochemical; conditions: tubulin at 10 μM; read-out: Tubulin assembly IC50 ± S.D
Protocol: (§1) To evaluate the effect of the compounds on tubulin assembly in vitro[41], varying concentrations of compounds were preincubated with 10 μM bovine brain tubulin in 0.8 M monosodium glutamate (pH adjusted to 6.6 with HCl in a 2.0 M stock solution) at 30 °C and then cooled to 0 °C. After addition of 0.4 mM GTP, the mixtures were transferred to 0 °C cuvettes in a recording spectrophotometer and warmed to 30 °C. Tubulin assembly was followed turbidimetrically at 350 nm. […] The capacity of the test compounds to inhibit colchicine binding to tubulin was measured as described, except that the reaction mixtures contained 1 μM tubulin, 5 μM [^3H]colchicine and 1 or 5 μM test compound.

[2] = tested on: SEM cells; assay: Antiproliferative MTT assay, SEM; type: cell-based, human; conditions: Homo sapiens, 72 h, mean ± SE
Protocol: (§2) Human T-cell leukemia (Jurkat) and human B-cell leukemia (SEM and RS4;11) cells were grown in RPMI-1640 medium (Gibco, Milano, Italy). Breast adenocarcinoma (MCF-7), human cervix carcinoma (HeLa), human lung adenocarcinoma (A549) and human colon adenocarcinoma (HT-29) cells were grown in DMEM medium (Gibco, Milano, Italy), all supplemented with 115 units/mL penicillin G (Gibco, Milano, Italy), 115 μg/mL streptomycin (Invitrogen, Milano, Italy), and 10% fetal bovine serum (FBS; Invitrogen, Milano, Italy). Stock solutions (10 mM) of the different compounds were obtained by dissolving them in DMSO. Individual wells of a 96-well tissue culture microtiter plate were inoculated with 100 μL of complete medium containing 8 × 10^3 cells. The plates were incubated at 37 °C in a humidified 5% CO2 incubator for 18 h prior to the experiments. After medium removal, 100 μL of fresh medium containing the test compound at different concentrations was added to each well in triplicate and incubated at 37 °C for 72 h. The percentage of DMSO in the medium never exceeded 0.25%. This was also the maximum DMSO concentration in all cell-based assays described below.

[3] = tested on: HUVECs; assay: Disruption of capillary-like tubes on Matrigel; type: cell-based, human; conditions: 24 h
Protocol: (§3) HUVECs were prepared from human umbilical cord veins, as previously described. The adherent cells were maintained in M200 medium supplemented with LSGS (Low Serum Growth Supplement), containing FBS, hydrocortisone, hEGF, bFGF, heparin, gentamycin/amphotericin (Life Technologies, Monza, Italy). Once confluent, the cells were detached by a trypsin–EDTA solution and used in experiments from the first to sixth passages.
Matrigel matrix (Basement Membrane Matrix, BD Biosciences, Italy) was kept at 4 °C for 3 h, when 230 μL of Matrigel solution was added to each well of a 24-well plate. After gelling at 37 °C for 30 min, gels were overlaid with 500 μL of medium containing 6 × 10^4 HUVECs. The cells were incubated over Matrigel for 6 h to allow capillary tubes to form. Different concentrations of test compound were added in the cultures and incubated for different times, and the disappearance of existing vasculature was monitored and photographed (five fields for each well: the four quadrants and the center) at a 10x magnification. Phase contrast images were recorded using a digital camera and saved as TIFF files. Image analysis was carried out using ImageJ image analysis software, and dimensional (percent area covered by HUVECs and total length of HUVECs network per field) and topological parameters (number of meshes and branching points per field) were determined. Values were expressed as percent change from control cultures grown with complete medium.

[4] = tested on: Jurkat; assay: Antiproliferative MTT assay, Jurkat; type: cell-based, human; conditions: Homo sapiens, Jurkat, 72 h, mean ± SE
Protocol: as §2

[5] = tested on: panel of seven human tumor cell lines; assay: Antiproliferative activity, range over panel of seven human tumor cell lines; type: cell-based; conditions: read-out: IC50 values, range over the cell line panel
Protocol: as §2

[6] = tested on: HUVECs; assay: HUVEC scratch wound motility assay; type: cell-based, human
Protocol: as §3
The motility assay for HUVECs was based on “scratch” wounding of a confluent monolayer. Briefly, HUVECs (1x10^5) were seeded onto 6-well plates coated with 0.1% collagen type I (BD Biosciences, Italy) in complete medium until a confluent monolayer was formed. The cells were wounded using a pipette tip, and wells were washed with PBS to remove undetached cells. Then, the cells were treated with the test compounds, and, at different times from the scratch, the cells were photographed under a light microscope. At all indicated time points, the wound width was measured in four areas and compared with the initial width.

[7] = tested on: RS 4;11; assay: Antiproliferative MTT assay, RS 4;11; type: cell-based, human; conditions: Homo sapiens, RS4-11, 72 h, mean ± SE
Protocol: as §2

[8] = tested on: HeLa; assay: Antiproliferative MTT assay, HeLa; type: cell-based, human; conditions: Homo sapiens, HeLa, 72 h, mean ± SE
Protocol: as §2

[9] = tested on: tubulin; assay: Inhibition of [3H]colchicine binding to tubulin; conditions: tubulin 1 μM, [3H]colchicine 5 μM
Protocol: as §1

[10] = tested on: HUVECs; assay: Cytotoxicity in HUVECs; type: cell-based; conditions: Homo sapiens, HUVEC; primary HUVECs
Protocol: as §3

[11] = tested on: A549; assay: Antiproliferative MTT assay, A549; type: cell-based, human; conditions: Homo sapiens, A549, 72 h, mean ± SE
Protocol: as §2

[12] = tested on: HT-29; assay: Antiproliferative MTT assay, HT-29; type: cell-based, human; conditions: Homo sapiens, HT-29, 72 h, mean ± SE
Protocol: as §2

[13] = tested on: PBL stimulated with PHA; assay: Cytotoxicity in PHA-stimulated peripheral blood lymphocytes; type: cell-based; conditions: Homo sapiens, Lymphocyte, 72 h, MTT, mean ± SEM, read-out: IC50 PBLPHA
Protocol: (§4) Peripheral blood lymphocytes (PBL) from healthy donors were obtained from human peripheral blood (leucocyte rich plasma- buffy coats) from healthy volunteers using the Lymphoprep (Fresenius KABI Norge AS) gradient density centrifugation.
(§5) After extensive washing, cells were resuspended (1.0 × 10^6 cells/mL) in RPMI-1640 with 10% FBS and incubated overnight. For cytotoxicity evaluations in proliferating PBL cultures, non-adherent cells were resuspended at 5 × 10^5 cells/mL in growth medium, containing 2.5 μg/mL PHA (Irvine Scientific). Different concentrations of the test compounds were added, and viability was determined 72 h later by the MTT test. For cytotoxicity evaluations in resting PBL cultures, non-adherent cells were resuspended (5 × 10^5 cells/mL) and treated for 72 h with the test compounds, as described above.

[14] = tested on: MCF-7; assay: Antiproliferative MTT assay, MCF-7; type: cell-based, human; conditions: Homo sapiens, MCF7, 72 h, mean ± SE
Protocol: as §2

[15] = tested on: PBL not stimulated with PHA; assay: Cytotoxicity in resting peripheral blood lymphocytes; type: cell-based; conditions: Homo sapiens, Lymphocyte, 72 h, MTT, mean ± SEM, read-out: IC50 PBLresting
Protocol: as §4, §5

| Compound | IC50 [1] [nM] | IC50 [2] [nM] | antivascular effect on Matrigel preformed tubular structures ([3]; 10 nM) | IC50 [4] [nM] | IC50 [5] [nM] | HUVEC cell migration (wound healing) ([6]; 10 nM, 6 and 24 h) | IC50 [7] [nM] | IC50 [8] [nM] | Colchicine binding % inhibition ± S.D, 1 μM drug [9] [%] | IC50 [10] [nM] | IC50 [11] [nM] | IC50 [12] [nM] | melting point [°C] | IC50 [13] [nM] | antivascular effect on Matrigel preformed tubular structures ([3]; 100 nM (highest concentration)) | IC50 [14] [nM] | HUVEC cell migration (wound healing) ([6]; 100 nM, 6 h and 24 h) | Colchicine binding % inhibition ± S.D, 5 μM drug [9] [%] | IC50 [15] [nM] | IC50 ([5]; Homo sapiens) [nM] |
| --- | --- | --- | --- | --- | --- | --- | --- | --- | --- | --- | --- | --- | --- | --- | --- | --- | --- | --- | --- | --- |
| COc1ccc(/C=C\c2cc(OC)c(OC)c(OC)c2)cc1O [CA-4, combretastatin A-4, reference compound] | […] | 5 ± 0.1 | significant antivascular activity | 5 ± 0.6 | 0.8 to 3100 | […] | 0.8 ± 0.2 | 4 ± 0.1 | 93 ± 0.8 | – | – | – | – | – | – | – | – | – | – | – |
| CCOc1ccc(-c2nc(C)oc2-c2cc(OC)c(OC)c(OC)c2)cc1 [Compound 5f, 4-(4-Ethoxyphenyl)-5-(3,4,5-trimethoxyphenyl)-2-methyloxazole] | 1300 ± 100 | 13.3 ± 4.2 | – | 50.7 ± 10.8 | – | – | 11.9 ± 6.3 | 2 ± 0.8 | – | > 100000 | 1.5 ± 0.44 | 1.9 ± 0.8 | 116 to 118 | 17700 ± 2100 | did not show a significant antivascular effect | 0.4 ± 0.08 | significantly reduced | 72 ± 2 | 34500 ± 4500 | – |
| COc1cc(-c2nc(C)oc2-c2ccc3ccccc3c2)cc(OC)c1OC [Compound 4a, 4-(3,4,5-Trimethoxyphenyl)-2-methyl-5-(naphthalen-3-yl)oxazole] | 1200 ± 100 | 40.2 ± 11 | – | 73.2 ± 5.2 | – | – | 14.3 ± 6.2 | 2.1 ± 0.5 | 47 ± 0.8 | > 100000 | 12.6 ± 5.4 | 0.5 ± 0.1 | 104 to 116 | 21100 ± 1200 | – | 1.1 ± 0.5 | – | 74 ± 5 | 15500 ± 1500 | 0.5 to 73.2 |
